PubChem BioAssay AID1963842 (Molecular Pharmacology Branch, DTP, NCI, 2024)

Tested on: 677734-321-R-J1-PDC complex spheroid viability
Experiment: Anticancer human tumor 677734-321-R-J1-PDC patient-derived soft tissue sarcoma cell line growth inhibition [POLQ]
Conditions: for IC50: curve of first compound; for viability, T/C: stronger effect = lower value
Outline: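 Three-cell-type spheroids modelling solid tumor plus stroma served as the readout system; POL inhibitors were tested individually and in combination, concentration ranges set by clinical Cmax where known.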

[1] = second compound 0.0316 µM, first compound 0.00316 µM
[2] = second compound 0.0316 µM, first compound 0.01 µM
[3] = second compound 0.0316 µM, first compound 0.0316 µM
[4] = second compound 0.0316 µM, first compound 0.1 µM
[5] = second compound 0.0316 µM, first compound 0.316 µM
[6] = second compound 0.0316 µM, first compound 1 µM
[7] = second compound 0.1 µM, first compound 0.00316 µM
[8] = second compound 0.1 µM, first compound 0.01 µM
[9] = second compound 0.1 µM, first compound 0.0316 µM
[10] = second compound 0.1 µM, first compound 0.1 µM
[11] = second compound 0.1 µM, first compound 0.316 µM
[12] = second compound 0.1 µM, first compound 1 µM
[13] = second compound 0.316 µM, first compound 0.00316 µM
[14] = second compound 0.316 µM, first compound 0.01 µM
[15] = second compound 0.316 µM, first compound 0.0316 µM
[16] = second compound 0.316 µM, first compound 0.1 µM
[17] = second compound 0.316 µM, first compound 0.316 µM
[18] = second compound 0.316 µM, first compound 1 µM
[19] = second compound 1 µM, first compound 0.00316 µM
[20] = second compound 1 µM, first compound 0.01 µM
[21] = second compound 1 µM, first compound 0.0316 µM
[22] = second compound 1 µM, first compound 0.1 µM
[23] = second compound 1 µM, first compound 0.316 µM
[24] = second compound 1 µM, first compound 1 µM
[25] = second compound 3.16 µM, first compound 0.00316 µM
[26] = second compound 3.16 µM, first compound 0.01 µM
[27] = second compound 3.16 µM, first compound 0.0316 µM
[28] = second compound 3.16 µM, first compound 0.1 µM
[29] = second compound 3.16 µM, first compound 0.316 µM
[30] = second compound 3.16 µM, first compound 1 µM
[31] = second compound 10 µM, first compound 0.00316 µM
[32] = second compound 10 µM, first compound 0.01 µM
[33] = second compound 10 µM, first compound 0.0316 µM
[34] = second compound 10 µM, first compound 0.1 µM
[35] = second compound 10 µM, first compound 0.316 µM
[36] = second compound 10 µM, first compound 1 µM
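Also: spheroids exposed to compounds for one week.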
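For viability, T/C in this document: 100% = vehicle DMSO treated spheroids.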

Molecule `COc1cccc(OCCCN)c1-c1cc(Nc2cnc(C#N)cn2)n[nH]1` + COC1C(OC(N)=O)C(O)C(Oc2ccc3c(O)c(NC(=O)c4ccc(O)c(CC=C(C)C)c4)c(=O)oc3c2C)OC1(C)C has an IC50 (second compound 0.0316 µM) of 7.45 nM, an IC50 (second compound 0.1 µM) of 7.48 nM and an IC50 (second compound 0.316 µM) of 7.05 nM. It also gave an IC50 (second compound 1 µM) of 8.14 nM, an IC50 (second compound 3.16 µM) of 7.37 nM and an IC50 (second compound 10 µM) of 7.32 nM. It also gave a viability, T/C [1] of 97.1%, a viability, T/C [2] of 33.8% and a viability, T/C [3] of 12.8%. For the same molecule, the viability, T/C [4] was 9.46%, the viability, T/C [5] was 8.59% and the viability, T/C [6] was 8.45%. It also gave a viability, T/C [7] of 92.5%, a viability, T/C [8] of 35.6% and a viability, T/C [9] of 11.9%. It also gave a viability, T/C [10] of 8.91%, a viability, T/C [11] of 9.88% and a viability, T/C [12] of 7.56%. It also gave a viability, T/C [13] of 97.3%, a viability, T/C [14] of 29% and a viability, T/C [15] of 14.7%. The viability, T/C [16] was 9.01%, the viability, T/C [17] was 10.5% and the viability, T/C [18] was 7.41%. The viability, T/C [19] was 102%, the viability, T/C [20] was 38.5% and the viability, T/C [21] was 9.9%. The viability, T/C [22] was 11.4%, the viability, T/C [23] was 11.9% and the viability, T/C [24] was 8.34%. The viability, T/C [25] was 103%, the viability, T/C [26] was 30.6% and the viability, T/C [27] was 11.9%. The viability, T/C [28] was 9.84%, the viability, T/C [29] was 12.3% and the viability, T/C [30] was 9.73%. It also gave a viability, T/C [31] of 88.4%, a viability, T/C [32] of 35.7% and a viability, T/C [33] of 12.3%. The viability, T/C [34] was 12%, the viability, T/C [35] was 10.3% and the viability, T/C [36] was 9.04%.
With `Cn1ncnc1[C@H]1c2n[nH]c(=O)c3cc(F)cc(c23)N[C@@H]1c1ccc(F)cc1` + COC1C(OC(N)=O)C(O)C(Oc2ccc3c(O)c(NC(=O)c4ccc(O)c(CC=C(C)C)c4)c(=O)oc3c2C)OC1(C)C the IC50 (second compound 0.0316 µM) was > 100 nM, the IC50 (second compound 0.1 µM) was > 100 nM and the IC50 (second compound 0.316 µM) was > 100 nM. The IC50 (second compound 1 µM) was > 100 nM, the IC50 (second compound 3.16 µM) was > 100 nM and the IC50 (second compound 10 µM) was > 100 nM. The viability, T/C (second compound 0.0316 µM, first compound 0.000316 µM) was 101%, the viability, T/C (second compound 0.0316 µM, first compound 0.001 µM) was 103% and the viability, T/C [1] was 99.7%. It also gave a viability, T/C [2] of 101%, a viability, T/C [3] of 98.8% and a viability, T/C [4] of 85.7%. The viability, T/C (second compound 0.1 µM, first compound 0.000316 µM) was 97.6%, the viability, T/C (second compound 0.1 µM, first compound 0.001 µM) was 101% and the viability, T/C [7] was 106%. The viability, T/C [8] was 101%, the viability, T/C [9] was 98.5% and the viability, T/C [10] was 95.2%. The viability, T/C (second compound 0.316 µM, first compound 0.000316 µM) was 106%, the viability, T/C (second compound 0.316 µM, first compound 0.001 µM) was 97.8% and the viability, T/C [13] was 98.5%. The viability, T/C [14] was 104%, the viability, T/C [15] was 97.6% and the viability, T/C [16] was 93.4%. For the same molecule, the viability, T/C (second compound 1 µM, first compound 0.000316 µM) was 109%, the viability, T/C (second compound 1 µM, first compound 0.001 µM) was 102% and the viability, T/C [19] was 103%. The viability, T/C [20] was 104%, the viability, T/C [21] was 96.3% and the viability, T/C [22] was 92.5%. For the same molecule, the viability, T/C (second compound 3.16 µM, first compound 0.000316 µM) was 108%, the viability, T/C (second compound 3.16 µM, first compound 0.001 µM) was 94.7% and the viability, T/C [25] was 103%. For the same molecule, the viability, T/C [26] was 100%, the viability, T/C [27] was 106% and the viability, T/C [28] was 94.4%. For the same molecule, the viability, T/C (second compound 10 µM, first compound 0.000316 µM) was 103%, the viability, T/C (second compound 10 µM, first compound 0.001 µM) was 100% and the viability, T/C [31] was 106%. The viability, T/C [32] was 103%, the viability, T/C [33] was 99.4% and the viability, T/C [34] was 93.3%.
For `O=C(c1cc(Cc2n[nH]c(=O)c3ccccc23)ccc1F)N1CCN(C(=O)C2CC2)CC1` + COC1C(OC(N)=O)C(O)C(Oc2ccc3c(O)c(NC(=O)c4ccc(O)c(CC=C(C)C)c4)c(=O)oc3c2C)OC1(C)C, the IC50 (second compound 0.0316 µM) was > 10000 nM, the IC50 (second compound 0.1 µM) was > 10000 nM and the IC50 (second compound 0.316 µM) was > 10000 nM. The IC50 (second compound 1 µM) was > 10000 nM, the IC50 (second compound 3.16 µM) was > 10000 nM and the IC50 (second compound 10 µM) was > 10000 nM. It also gave a viability, T/C [3] of 108%, a viability, T/C [4] of 105% and a viability, T/C [5] of 103%. It also gave a viability, T/C [6] of 110%, a viability, T/C (second compound 0.0316 µM, first compound 3.16 µM) of 102% and a viability, T/C (second compound 0.0316 µM, first compound 10 µM) of 86.4%. The viability, T/C [9] was 104%, the viability, T/C [10] was 112% and the viability, T/C [11] was 101%. The viability, T/C [12] was 104%, the viability, T/C (second compound 0.1 µM, first compound 3.16 µM) was 107% and the viability, T/C (second compound 0.1 µM, first compound 10 µM) was 79.6%. For the same molecule, the viability, T/C [15] was 112%, the viability, T/C [16] was 111% and the viability, T/C [17] was 104%. The viability, T/C [18] was 111%, the viability, T/C (second compound 0.316 µM, first compound 3.16 µM) was 111% and the viability, T/C (second compound 0.316 µM, first compound 10 µM) was 78.1%. For the same molecule, the viability, T/C [21] was 108%, the viability, T/C [22] was 105% and the viability, T/C [23] was 111%. For the same molecule, the viability, T/C [24] was 99.9%, the viability, T/C (second compound 1 µM, first compound 3.16 µM) was 107% and the viability, T/C (second compound 1 µM, first compound 10 µM) was 81.2%. The viability, T/C [27] was 117%, the viability, T/C [28] was 111% and the viability, T/C [29] was 113%. For the same molecule, the viability, T/C [30] was 103%, the viability, T/C (second compound 3.16 µM, first compound 3.16 µM) was 100% and the viability, T/C (second compound 3.16 µM, first compound 10 µM) was 87.3%. The viability, T/C [33] was 118%, the viability, T/C [34] was 106% and the viability, T/C [35] was 108%. For the same molecule, the viability, T/C [36] was 112%, the viability, T/C (second compound 10 µM, first compound 3.16 µM) was 103% and the viability, T/C (second compound 10 µM, first compound 10 µM) was 88%.
